# Laboratory results reported in PubChem BioAssay AID1996.
# Details: buffer; pH 7.4; 200.0 µM
row,Compound,solubility kinetic [µg/mL]
1,COC(=O)Nc1ccc(S(=O)(=O)N2CCCC(C(=O)O)C2)cc1 (stereo unspecified),50.4
2,COc1cc(NC(=O)Cc2ccccc2)nc(OC)n1,> 41
3,Cc1ccc(C(O)CCc2ccc(N)cc2)cc1 (stereo unspecified),31.9
4,Cc1cc(C(=O)Nc2ccc(OCc3ccccc3)cc2)c(C)o1,< 0.7
5,COCCN(Cc1ccccc1)C(=O)C1CCN(C(=O)Nc2ccccc2)CC1,> 59.3
6,NC(=O)c1oc2ccccc2c1NC(=O)c1ccc([N+](=O)[O-])o1,1.8
7,Cc1ccccc1-c1cn(-c2ccccc2)c(=S)[nH]1,6.2
8,O=C(Nc1ccccn1)c1sc2cc([N+](=O)[O-])ccc2c1Cl,1.7
9,CCOc1ccc(S(=O)(=O)NC2CCCC2)cc1,18.3
10,Cc1cc(C)c(C)c(S(=O)(=O)NCC(=O)Nc2ccccc2F)c1C,12.2
11,CCCS(=O)(=O)C/C(N)=N/OC(=O)c1ccc(Cl)cc1,34.3
12,Cl.Clc1cccc(N2CCNCC2)c1,> 35
13,O=C(CNC(=O)c1ccc(Br)cc1)NC1CC1,> 44.6
14,COc1cc(NC(=S)N2CCCC2)cc(OC)c1,34.8
15,CC(=O)Nc1sc2c(c1C#N)CCC2,> 30.9
16,COc1ccc(C(=O)O/N=C2\CCS(=O)(=O)c3sccc32)cc1,< 0.8
17,CCCCOc1ccc(C(=O)Oc2cccnc2)cc1,1.5
18,CCOc1ccc(NC(=O)C(CC(=O)O)Cc2ccc(Br)cc2)cc1 (stereo unspecified),50
19,CC(=O)c1ccc(NC(=O)c2cnsn2)cc1,29.1
20,COc1cc(-n2c(C)nc3cccnc32)c(Cl)cc1C(=O)O,> 47.7
21,Cc1cc(C)nc(SCc2cn3ccccc3n2)n1,> 40.6
22,CCN(CC)CC(=O)c1c(N)n(Cc2ccccc2)c(=O)n(C)c1=O,51.4
23,CCOc1ccc(-c2n[nH]c(=S)o2)cc1,> 33.3
24,O=C1Nc2ccccc2C1Cc1ccccc1 (stereo unspecified),29
25,CC1CCCN(S(=O)(=O)c2ccc3oc(=O)ccc3c2)C1 (stereo unspecified),20

row,Compound,solubility kinetic [µg/mL]
1,c1ccc2sc(NCC3CCCO3)nc2c1 (stereo unspecified),> 35.1
2,COc1ccc(OCCC(=O)Nc2ccccc2)cc1,> 40.7
3,CC(C)(C)NC(=O)COC(=O)c1ccc(Cl)nc1,36.4
4,CCCN(CCC)S(=O)(=O)c1ccc(C(=O)NCc2ccco2)cc1,12.7
5,CC1CN(CC(=O)NCc2ccccc2)CC(C)O1 (stereo unspecified),36.1
6,O=C(CCCC(=O)c1ccccc1)NCc1ccccc1,> 42.2
7,CC1CCCC(NC(=O)COC(=O)CCC(=O)c2cccs2)C1C (stereo unspecified),> 52.7
8,Cc1ccc(NC(=O)C2CC(=O)N(C(C)C)C2)cc1C (stereo unspecified),> 41.2
9,Cc1ccc(NC(=O)CCCC(=O)OC(C)C(=O)c2ccccc2)cc1 (stereo unspecified),> 53
10,O=C(COC(=O)c1ccc(F)cc1F)Nc1ncccn1,> 44
11,Cc1ccc(S(=O)(=O)NCc2cccnc2)cc1C,> 41.5
12,CC(C1CC1)N(C(=O)c1ccccc1[N+](=O)[O-])c1ccccc1 (stereo unspecified),13
13,CN(C)C(=O)COC(=O)c1ccccc1NC(=O)c1ccco1,> 47.4
14,Cc1[nH]ccc(=O)c1Cc1c(Cl)cccc1Cl,> 40.2
15,CC(=O)c1ccc(N=C2NC(=O)C(CO)(CO)S2)cc1,43.2
16,Cn1nc(C(F)(F)F)c(-c2ccccc2)c1NC(=O)CCC(=O)O,> 51.2
17,Cc1ccccc1-n1c(O)c(/C=N/NC(=O)c2ccncc2)c(=O)[nH]c1=O,> 54.8
18,N#CCCN(Cc1cccnc1)C(=S)NCc1ccco1,> 45.1
19,CCCN1C(=O)c2ccc(C(=O)Nc3ccccc3C(=O)O)cc2C1=O,> 52.9
20,O=C(NC1CCCC1)C1CCCN(C(=O)Nc2ccccc2)C1 (stereo unspecified),43.9
21,N#C/C(=C\c1ccc2c(c1)OCCO2)C(=O)Nc1nccs1,28.8
22,O=C(Cc1ccsc1)Nc1cc(F)ccc1F,> 38
23,COc1ccccc1Nc1nc2cc(C)ccc2cc1C#N,< 0.2
24,CC(=O)Nc1ccc(N2C(=O)CSC2c2ccccc2[N+](=O)[O-])cc1 (stereo unspecified),41.1
25,CCCn1c(C(C)NS(=O)(=O)c2ccccc2)n[nH]c1=S (stereo unspecified),> 49

row,Compound,solubility kinetic [µg/mL]
1,COc1ccc2oc(C(=O)OCC(=O)NC3CCCC3)c(C)c2c1,6.7
2,O=c1[nH]c(O)c(C=NC2CCCCC2)c(=O)[nH]1,> 35.6
3,Cc1ccc(-c2noc(CCCC(=O)NC3CCCCC3)n2)cc1,7.8
4,CCOC(=O)N1CCC2(CC1)C(C#N)=C(N)OC1=C2C(=O)CCC1,> 49.7
5,Cc1cc(C(=O)NC2CC2)c2ccccc2n1,29.5
6,O=c1cc(O)c2ccccc2n1Cc1ccccc1,31.9
7,CCOc1ccc(N=C(C)C2=C(O)c3ccccc3C2=O)cc1,< 0.7
8,CCn1c(=O)c(C(=O)Nc2ccc(C)cc2C)c(O)c2ccccc21,< 0.4
9,Cc1cc(C)n2nc(C(=O)OCC(=O)N(CC(C)C)C3CCS(=O)(=O)C3)nc2n1 (stereo unspecified),> 63.5
10,C=C(C)CN1C(=O)C(=O)N(CC(=C)C)C1=O,> 33.3
11,CS(=O)(=O)N1CCN(CC(=O)NC2CCCC2)CC1,> 43.4
12,CCN(CC(=O)Nc1c(F)cccc1F)C(=O)C1CC1,40.7
13,Cc1cc(Nc2ccc(C(=O)N3CCCCC3)cc2)c2cccc(C)c2n1,4.8
14,CCOC(=O)c1cc2c(n(-c3ccc(Cl)cc3)c1=O)CCCC2=O,> 51.9
15,CC(=O)c1ccc(OCC(=O)N2CCCC2c2ccc3c(c2)OCCCO3)cc1 (stereo unspecified),49.2
16,S=C(Nc1ccccc1Cl)N1CCN(c2ccccn2)CC1,2.3
17,O=C(CN1CCCCCC1)NCC1CCCO1.O=C(O)C(=O)O (stereo unspecified),> 49.6
18,Cc1ccccc1S(=O)(=O)NC(=NCc1ccc(F)cc1)c1ccccc1,34.1
19,C=CCNC(=S)/N=c1/ccccn1C,> 31.1
20,O=C(CSc1ccc(F)cc1)Nc1cccc(S(=O)(=O)N2CCOCC2)c1,> 61.6
21,CCOC(=O)C1CCN(C(=O)c2cc3cc(C)ccc3[nH]2)CC1,37
22,CC1CC(C)CN(CC(O)COCc2ccccc2)C1.Cl (stereo unspecified),46.9
23,CCOC(=O)c1ccc(NC(=O)NCc2ccccn2)cc1,42.2
24,COC(=O)c1ccc(C2SCC(=O)N2Cc2ccccc2)cc1 (stereo unspecified),37.3
25,CCc1ccc(N2CC(C(=O)NCCC3=CCCCC3)CC2=O)cc1 (stereo unspecified),6.8

row,Compound,solubility kinetic [µg/mL]
1,CC(OC(=O)c1ccco1)C(=O)Nc1ncc(Cl)cc1Cl (stereo unspecified),49.2
2,COc1ccc(C(=O)O/N=C(\N)c2ccccc2)cc1,27.1
3,CCOc1ccc(NC(=S)Nc2cccc3ccccc23)cc1,2
4,COc1ccccc1Nc1nc(NCc2ccco2)c2ccccc2n1.Cl,0.4
5,COc1ccc(S(=O)(=O)Nc2cc(C)on2)cc1NC(C)=O,> 48.8
6,CN(C)CC(c1ccccc1)c1ccccc1.Cl,34.3
7,Cc1ccc(C(=O)N2CCCCC2C(=O)O)cc1S(=O)(=O)N1CCCCC1 (stereo unspecified),> 59.2
8,CC(C)CC(=O)c1c[nH]c(C(=O)NCc2ccccc2)c1,1.6
9,COc1cc(OC)cc(C(=O)NC2CCSc3ccccc32)c1 (stereo unspecified),3.9
10,O=C(NCc1ccccc1)N1CCC(Cc2ccccc2)CC1,< 0.3
11,O=C(Nc1ccc(F)cc1)C1C2CCC3C(CCC21)C3(Cl)Cl (stereo unspecified),0.8
12,COCC(=O)N1CCN(c2nc3ccccc3o2)CC1,> 41.3
13,N#Cc1ccc(-c2cccnc2)nc1SCC(N)=O,38.2
14,O=Cc1cn(CCOc2ccccc2F)c2ccccc12,12.8
15,COc1cccc(NC(=O)C(=O)NCCCN2CCCC2=O)c1,> 47.9
16,COC(=O)CCCNC(=O)c1ccc2[nH]c(C)c(C)c2c1,> 43.3
17,Cc1cc(Br)c2c(c1)C1(OCCO1)C(=O)N2,> 42.6
18,COc1ccc2cc(C(=O)N3CCN(c4ccccc4OC)CC3)[nH]c2c1,2.9
19,COC(=O)C1CCN(C(=O)CN2C(=O)NC3(CCC(C)CC3)C2=O)CC1 (stereo unspecified),> 54.8
20,N#C/C(=C\c1cccnc1)c1ccc([N+](=O)[O-])cc1,13.1
21,Cc1nc(NC(=O)CSC2=NCCS2)sc1C(=O)N(C)C,> 51.7
22,Cc1ccc([N+](=O)[O-])cc1N(CC(=O)NC1CCCC1)S(C)(=O)=O,> 53.3
23,COc1ccccc1C(=O)N(C1=NC(C)CS1)c1ccc(Cl)cc1 (stereo unspecified),8.1
24,CCN1C(=O)CS/C1=N\S(=O)(=O)c1ccccc1,> 42.7
25,CCSc1ccccc1-c1nc(-c2ccncc2)no1,5.1

row,Compound,solubility kinetic [µg/mL]
1,CC1CCN(C(=O)c2ccc(-c3ccccc3Cl)o2)CC1,7.3
2,O=C(CCN1C(=O)c2ccccc2C1=O)NCc1cccc(Cl)c1,32.4
3,Cc1ccc(C)c(NC(=O)CSc2c(C)n[nH]c2C)c1,> 43.4
4,CCn1cc(C(=O)NCCC(=O)NCCO)c(=O)c2cc3c(cc21)OCO3,> 56.3
5,COc1ccc(C(=O)OCC(=O)NC2CC2)cc1F,32.6
6,CN1CCN(C(=O)C23CCC(C)(C(=O)C2Br)C3(C)C)CC1 (stereo unspecified),> 53.6
7,Br.Fc1ccccc1CNCc1ccc2c(c1)OCO2,> 51
8,CC(C)C(=O)N1CC(=O)Nc2ccc(F)cc2C1c1ccc(F)cc1 (stereo unspecified),> 51.7
9,Cc1cccc(C(=O)O)c1NC(=O)Cc1cccc2ccccc12,> 47.9
10,Cn1cccc1/C=C(\C#N)c1ccccc1,15.4
11,COc1ccccc1-c1nc2ccccc2c(=O)n1O,> 40.2
12,CC1CN(C(=O)C2CC(=O)N(c3ccc(Cl)cc3)C2)CC(C)O1 (stereo unspecified),> 50.5
13,O=C(O)c1cc(S(=O)(=O)N2CCCCC2)ccc1N1CCOCC1,> 53.2
14,O=C(Nc1nc2ccsc2c(=O)s1)C1CCC1,8.1
15,O=S(=O)(c1cccc(-c2n[nH]c(=S)n2-c2ccccc2Cl)c1)N1CCOCC1,> 65.5
16,COc1ccccc1NC(=O)c1cc(C)oc1C,> 36.8
17,O=C(CSc1nncs1)NCc1ccc(F)cc1,> 42.5
18,N/C(=N\OC(=O)Cc1ccccc1)c1cccc(Br)c1,1.1
19,O=C(Nc1ccccc1)OCc1cncs1,> 35.1
20,CCOc1c(C)cc(S(=O)(=O)NCc2cccnc2)c(C)c1C,45.2
21,Cc1cnc(=O)[nH]c1SCC(=O)Nc1nccs1,31
